Measurements as given in ChEMBL document CHEMBL4507263, “Data for DCP probe BAY-474” (2021).

Key:
[1] = molecular target: Platelet-activating factor receptor (Homo sapiens) (UniProt P25105); experiment: Inhibition of Platelet Activating Factor (PAF) at 10 µM in the Eurofins-Panlabs radioligand binding assay (Eurofins_assay_265010); conditions: Compound concentration 10.0 uM
[2] = molecular target: Calcium/calmodulin-dependent protein kinase type II subunit delta (Homo sapiens) (UniProt Q13557); experiment: CaMKIIdelta (h) Millipore kinase activity assay; conditions: Compound concentration 1.0 uM
[3] = molecular target: Ribosomal protein S6 kinase beta-1 (Homo sapiens) (UniProt P23443); experiment: p70S6K (h) Millipore kinase activity assay; conditions: Compound concentration 1.0 uM
[4] = molecular target: GABA-A receptor; anion channel (Rattus norvegicus) (UniProt O09028+P15431+P18506+P18508+P19969+P20236+P23574+P23576+P28471+P28473+P30191+P62813+P63079+P63138+Q91ZM7+Q9ES14); experiment: Inhibition of GABAA, Muscimol, Central at 10 µM in the Eurofins-Panlabs radioligand binding assay (Eurofins_assay_226500); type: protein-complex assay; conditions: Compound concentration 10.0 uM
[5] = molecular target: Serine/threonine-protein kinase MRCK beta (Homo sapiens) (UniProt Q9Y5S2); experiment: MRCKbeta (h) Millipore kinase activity assay; conditions: Compound concentration 1.0 uM
[6] = species: Mus musculus; experiment: Inhibition of Interleukin IL-1 at 10 µM in the Eurofins-Panlabs radioligand binding assay (Eurofins_assay_243520); set-up: ligand concentration 0.1 nM; conditions: Compound concentration 10.0 uM
[7] = molecular target: Tyrosine-protein kinase Mer (Homo sapiens) (UniProt Q12866); experiment: Mer (h) Millipore kinase activity assay; conditions: Compound concentration 1.0 uM
[8] = molecular target: Serine/threonine-protein kinase TAO3 (Homo sapiens) (UniProt Q9H2K8); experiment: TAO3 (h) Millipore kinase activity assay; conditions: Compound concentration 1.0 uM
[9] = molecular target: Serine/threonine-protein kinase TAO1 (Homo sapiens) (UniProt Q7L7X3); experiment: TAO1 (h) Millipore kinase activity assay; conditions: Compound concentration 1.0 uM
[10] = molecular target: D(2) dopamine receptor (Homo sapiens) (UniProt P14416); conditions: Compound concentration 10.0 uM
[11] = molecular target: Glucocorticoid receptor (Homo sapiens) (UniProt P04150); experiment: Glucocorticoid Eurofins-Panlabs radioligand binding assay; conditions: Compound concentration 10.0 uM
[12] = molecular target: Casein kinase II subunit alpha (Homo sapiens) (UniProt P68400); experiment: CK2 (h) Millipore kinase activity assay; conditions: Compound concentration 1.0 uM
[13] = molecular target: Protein kinase C alpha type (Homo sapiens) (UniProt P17252); experiment: PKCalpha (h) Millipore kinase activity assay; conditions: Compound concentration 1.0 uM
[14] = molecular target: Sigma non-opioid intracellular receptor 1 (Homo sapiens) (UniProt Q99720); experiment: Inhibition of Sigma 1 at 10 µM in the Eurofins-Panlabs radioligand binding assay (Eurofins_assay_278110); set-up: ligand concentration 8 nM; conditions: Compound concentration 10.0 uM
[15] = molecular target: Homeodomain-interacting protein kinase 1 (Homo sapiens) (UniProt Q86Z02); experiment: HIPK1 (h) Millipore kinase activity assay; conditions: Compound concentration 1.0 uM
[16] = molecular target: Serine/threonine-protein kinase WNK3 (Homo sapiens) (UniProt Q9BYP7); experiment: WNK3 (h) Millipore kinase activity assay; conditions: Compound concentration 1.0 uM
[17] = molecular target: Serine/threonine-protein kinase Nek6 (Homo sapiens) (UniProt Q9HC98); conditions: Compound concentration 1000.0 nM
[18] = tested on: Tyrosine-protein kinase ABL1 (Homo sapiens), P00519 [Q252H]; conditions: Compound concentration 1000.0 nM
[19] = molecular target: Calcium/calmodulin-dependent protein kinase type II subunit alpha (Homo sapiens) (UniProt Q9UQM7); conditions: Compound concentration 1000.0 nM
[20] = molecular target: Homeodomain-interacting protein kinase 3 (Homo sapiens) (UniProt Q9H422); conditions: Compound concentration 1000.0 nM
[21] = molecular target: TGF-beta receptor type-2 (Homo sapiens) (UniProt P37173); conditions: Compound concentration 1000.0 nM
[22] = molecular target: Serine/threonine-protein kinase mTOR (Homo sapiens) (UniProt P42345); conditions: Compound concentration 1000.0 nM
[23] = molecular target: Serine/threonine-protein kinase Nek5 (Homo sapiens) (UniProt Q6P3R8); conditions: Compound concentration 1000.0 nM
[24] = molecular target: Serine/threonine-protein kinase 17B (Homo sapiens) (UniProt O94768); conditions: Compound concentration 1000.0 nM
[25] = molecular target: Tyrosine-protein kinase Fyn (Homo sapiens) (UniProt P06241); conditions: Compound concentration 1000.0 nM
[26] = tested on: Phosphatidylinositol 4,5-bisphosphate 3-kinase catalytic subunit alpha isoform (Homo sapiens), P42336 [M1043I]; conditions: Compound concentration 1000.0 nM
[27] = molecular target: Bone morphogenetic protein receptor type-1B (Homo sapiens) (UniProt O00238); conditions: Compound concentration 1000.0 nM
[28] = tested on: Phosphatidylinositol 4,5-bisphosphate 3-kinase catalytic subunit alpha isoform (Homo sapiens), P42336 [E545A]; conditions: Compound concentration 1000.0 nM
[29] = molecular target: Tyrosine-protein kinase ABL1 (Homo sapiens) (UniProt P00519); conditions: Compound concentration 1000.0 nM
[30] = tested on: Epidermal growth factor receptor (Homo sapiens), P00533 [G719C]; conditions: Compound concentration 1000.0 nM
[31] = molecular target: Megakaryocyte-associated tyrosine-protein kinase (Homo sapiens) (UniProt P42679); conditions: Compound concentration 1000.0 nM
[32] = molecular target: Serine/threonine-protein kinase PLK2 (Homo sapiens) (UniProt Q9NYY3); conditions: Compound concentration 1000.0 nM
[33] = molecular target: Glycogen synthase kinase-3 beta (Homo sapiens) (UniProt P49841); conditions: Compound concentration 1000.0 nM
[34] = molecular target: Receptor tyrosine-protein kinase erbB-4 (Homo sapiens) (UniProt Q15303); conditions: Compound concentration 1000.0 nM
[35] = molecular target: Non-receptor tyrosine-protein kinase TYK2 (Homo sapiens) (UniProt P29597); conditions: Compound concentration 1000.0 nM
[36] = tested on: Receptor-type tyrosine-protein kinase FLT3 (Homo sapiens), P36888 [R834Q]; conditions: Compound concentration 1000.0 nM
[37] = molecular target: Serine/threonine-protein kinase ULK2 (Homo sapiens) (UniProt Q8IYT8); conditions: Compound concentration 1000.0 nM
[38] = molecular target: MAP/microtubule affinity-regulating kinase 4 (Homo sapiens) (UniProt Q96L34); conditions: Compound concentration 1000.0 nM
[39] = molecular target: Dual specificity tyrosine-phosphorylation-regulated kinase 1A (Homo sapiens) (UniProt Q13627); conditions: Compound concentration 1000.0 nM
[40] = molecular target: Maternal embryonic leucine zipper kinase (Homo sapiens) (UniProt Q14680); conditions: Compound concentration 1000.0 nM
[41] = molecular target: Cyclin-dependent kinase 9 (Homo sapiens) (UniProt P50750); conditions: Compound concentration 1000.0 nM
[42] = molecular target: Serine/threonine-protein kinase RIO1 (Homo sapiens) (UniProt Q9BRS2); conditions: Compound concentration 1000.0 nM
[43] = molecular target: Dual specificity protein kinase CLK1 (Homo sapiens) (UniProt P49759); conditions: Compound concentration 1000.0 nM
Sequence of Dual specificity protein kinase CLK1 (Homo sapiens) (P49759 whole entry, looked up): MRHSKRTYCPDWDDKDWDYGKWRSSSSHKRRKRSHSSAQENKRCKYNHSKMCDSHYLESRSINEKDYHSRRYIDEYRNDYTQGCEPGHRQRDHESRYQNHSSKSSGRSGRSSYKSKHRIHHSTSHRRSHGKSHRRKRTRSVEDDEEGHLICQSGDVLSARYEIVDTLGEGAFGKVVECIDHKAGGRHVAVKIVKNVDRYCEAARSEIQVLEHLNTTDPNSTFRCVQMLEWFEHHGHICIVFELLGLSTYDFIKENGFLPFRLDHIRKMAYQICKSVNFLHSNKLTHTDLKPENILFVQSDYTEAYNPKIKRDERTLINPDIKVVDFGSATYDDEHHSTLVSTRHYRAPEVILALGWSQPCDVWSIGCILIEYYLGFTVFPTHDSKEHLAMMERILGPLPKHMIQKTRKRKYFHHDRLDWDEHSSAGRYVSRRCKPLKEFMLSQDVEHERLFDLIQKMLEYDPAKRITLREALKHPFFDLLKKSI

Sequence of Maternal embryonic leucine zipper kinase (Homo sapiens) (Q14680 whole entry, looked up): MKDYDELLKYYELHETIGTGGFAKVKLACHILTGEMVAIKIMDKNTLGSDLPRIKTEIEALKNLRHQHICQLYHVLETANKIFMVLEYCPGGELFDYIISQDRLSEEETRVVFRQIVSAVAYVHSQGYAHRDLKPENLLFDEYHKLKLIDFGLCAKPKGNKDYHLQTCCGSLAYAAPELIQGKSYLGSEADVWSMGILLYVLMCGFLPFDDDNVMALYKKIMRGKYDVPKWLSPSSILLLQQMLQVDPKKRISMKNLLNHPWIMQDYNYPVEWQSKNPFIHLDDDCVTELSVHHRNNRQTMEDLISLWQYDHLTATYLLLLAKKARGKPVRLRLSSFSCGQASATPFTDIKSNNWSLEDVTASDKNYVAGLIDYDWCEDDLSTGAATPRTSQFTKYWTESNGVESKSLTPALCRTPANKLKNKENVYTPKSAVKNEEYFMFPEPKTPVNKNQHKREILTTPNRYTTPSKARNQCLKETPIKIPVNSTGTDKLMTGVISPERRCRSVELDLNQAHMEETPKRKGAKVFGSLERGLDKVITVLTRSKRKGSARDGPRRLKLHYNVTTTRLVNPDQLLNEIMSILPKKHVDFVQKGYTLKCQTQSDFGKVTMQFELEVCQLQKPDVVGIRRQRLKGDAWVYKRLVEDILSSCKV
Sequence of Phosphatidylinositol 4,5-bisphosphate 3-kinase catalytic subunit alpha isoform (Homo sapiens), P42336 [E545A] (P42336 whole entry E545A, canonical isoform): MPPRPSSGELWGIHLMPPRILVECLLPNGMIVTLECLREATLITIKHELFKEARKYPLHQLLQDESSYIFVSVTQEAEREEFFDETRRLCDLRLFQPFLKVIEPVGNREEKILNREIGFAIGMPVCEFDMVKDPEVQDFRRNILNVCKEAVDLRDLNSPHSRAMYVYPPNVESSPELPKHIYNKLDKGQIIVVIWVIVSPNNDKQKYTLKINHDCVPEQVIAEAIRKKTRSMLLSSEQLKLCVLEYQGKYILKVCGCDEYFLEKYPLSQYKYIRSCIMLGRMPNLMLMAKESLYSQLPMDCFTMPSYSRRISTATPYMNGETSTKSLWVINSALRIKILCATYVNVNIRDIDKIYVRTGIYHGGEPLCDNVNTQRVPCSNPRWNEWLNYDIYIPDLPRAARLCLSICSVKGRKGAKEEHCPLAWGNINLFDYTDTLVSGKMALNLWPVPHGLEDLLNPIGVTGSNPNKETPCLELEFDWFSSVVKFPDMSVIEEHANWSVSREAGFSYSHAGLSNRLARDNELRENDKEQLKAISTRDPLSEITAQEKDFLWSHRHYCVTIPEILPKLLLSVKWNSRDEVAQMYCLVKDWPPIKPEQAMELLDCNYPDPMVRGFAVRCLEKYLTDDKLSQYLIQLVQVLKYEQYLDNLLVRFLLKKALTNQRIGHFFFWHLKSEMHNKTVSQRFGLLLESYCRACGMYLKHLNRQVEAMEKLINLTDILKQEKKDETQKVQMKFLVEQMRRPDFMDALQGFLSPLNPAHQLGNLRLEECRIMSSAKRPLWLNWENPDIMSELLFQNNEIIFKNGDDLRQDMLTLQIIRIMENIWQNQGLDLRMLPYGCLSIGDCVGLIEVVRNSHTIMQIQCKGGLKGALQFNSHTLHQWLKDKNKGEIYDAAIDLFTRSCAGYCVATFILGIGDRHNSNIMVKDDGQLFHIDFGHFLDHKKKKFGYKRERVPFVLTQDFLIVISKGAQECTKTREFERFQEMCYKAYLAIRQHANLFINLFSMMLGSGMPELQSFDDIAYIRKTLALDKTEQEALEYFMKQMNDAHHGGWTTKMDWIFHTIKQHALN
Sequence of Serine/threonine-protein kinase 17B (Homo sapiens) (O94768 whole entry): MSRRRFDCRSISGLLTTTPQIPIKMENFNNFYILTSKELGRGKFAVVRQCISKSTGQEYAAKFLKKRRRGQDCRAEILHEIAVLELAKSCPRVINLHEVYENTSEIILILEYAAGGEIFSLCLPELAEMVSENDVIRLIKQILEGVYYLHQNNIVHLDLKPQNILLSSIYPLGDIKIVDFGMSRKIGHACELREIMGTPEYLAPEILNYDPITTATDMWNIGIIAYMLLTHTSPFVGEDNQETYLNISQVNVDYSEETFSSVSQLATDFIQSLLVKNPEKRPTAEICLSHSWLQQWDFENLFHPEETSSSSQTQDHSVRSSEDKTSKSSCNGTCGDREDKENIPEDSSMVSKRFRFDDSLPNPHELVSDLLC
Sequence of Casein kinase II subunit alpha (Homo sapiens) (P68400 whole entry, looked up): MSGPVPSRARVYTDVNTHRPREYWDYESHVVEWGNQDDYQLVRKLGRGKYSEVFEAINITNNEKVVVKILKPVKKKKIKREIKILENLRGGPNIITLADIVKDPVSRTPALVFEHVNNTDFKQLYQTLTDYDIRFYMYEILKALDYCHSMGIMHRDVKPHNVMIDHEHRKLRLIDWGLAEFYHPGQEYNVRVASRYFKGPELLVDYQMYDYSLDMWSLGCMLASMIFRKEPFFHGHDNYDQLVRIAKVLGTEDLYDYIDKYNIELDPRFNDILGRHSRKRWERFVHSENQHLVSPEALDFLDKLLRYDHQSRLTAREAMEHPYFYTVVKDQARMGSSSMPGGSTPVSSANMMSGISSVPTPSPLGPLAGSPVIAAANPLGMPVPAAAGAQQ
Sequence of MAP/microtubule affinity-regulating kinase 4 (Homo sapiens) (Q96L34 whole entry): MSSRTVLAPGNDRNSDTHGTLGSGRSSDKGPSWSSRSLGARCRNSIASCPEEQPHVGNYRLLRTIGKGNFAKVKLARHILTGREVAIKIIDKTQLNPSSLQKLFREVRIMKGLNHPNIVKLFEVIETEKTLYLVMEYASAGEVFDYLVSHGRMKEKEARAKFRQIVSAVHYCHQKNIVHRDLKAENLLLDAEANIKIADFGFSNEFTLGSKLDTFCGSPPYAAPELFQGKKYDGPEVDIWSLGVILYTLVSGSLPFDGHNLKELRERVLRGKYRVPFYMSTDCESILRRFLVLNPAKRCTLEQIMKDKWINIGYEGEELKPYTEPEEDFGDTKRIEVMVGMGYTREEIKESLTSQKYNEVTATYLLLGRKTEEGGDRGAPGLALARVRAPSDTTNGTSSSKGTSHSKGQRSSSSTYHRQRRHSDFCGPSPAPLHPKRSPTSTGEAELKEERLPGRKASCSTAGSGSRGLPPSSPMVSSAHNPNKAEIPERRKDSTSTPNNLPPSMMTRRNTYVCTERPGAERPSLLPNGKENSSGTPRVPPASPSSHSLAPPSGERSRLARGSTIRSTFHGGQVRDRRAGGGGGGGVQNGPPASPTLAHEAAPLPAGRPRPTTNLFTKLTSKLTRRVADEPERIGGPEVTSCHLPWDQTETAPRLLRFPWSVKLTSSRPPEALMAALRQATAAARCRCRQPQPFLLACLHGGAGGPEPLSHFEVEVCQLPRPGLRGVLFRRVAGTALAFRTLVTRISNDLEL
Sequence of Calcium/calmodulin-dependent protein kinase type II subunit alpha (Homo sapiens) (Q9UQM7 whole entry): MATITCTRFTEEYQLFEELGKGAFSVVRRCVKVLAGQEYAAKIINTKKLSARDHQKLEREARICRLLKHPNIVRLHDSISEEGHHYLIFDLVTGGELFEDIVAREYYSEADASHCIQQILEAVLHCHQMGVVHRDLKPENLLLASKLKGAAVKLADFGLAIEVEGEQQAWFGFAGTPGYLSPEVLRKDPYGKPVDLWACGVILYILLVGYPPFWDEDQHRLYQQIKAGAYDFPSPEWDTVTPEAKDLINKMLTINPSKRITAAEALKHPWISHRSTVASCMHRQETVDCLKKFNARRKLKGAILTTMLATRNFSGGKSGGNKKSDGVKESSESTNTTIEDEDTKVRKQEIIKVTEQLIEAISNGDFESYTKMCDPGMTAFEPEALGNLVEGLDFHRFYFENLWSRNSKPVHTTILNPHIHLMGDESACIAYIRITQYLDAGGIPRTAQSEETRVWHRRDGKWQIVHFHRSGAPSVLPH
Sequence of Serine/threonine-protein kinase RIO1 (Homo sapiens) (Q9BRS2 whole entry): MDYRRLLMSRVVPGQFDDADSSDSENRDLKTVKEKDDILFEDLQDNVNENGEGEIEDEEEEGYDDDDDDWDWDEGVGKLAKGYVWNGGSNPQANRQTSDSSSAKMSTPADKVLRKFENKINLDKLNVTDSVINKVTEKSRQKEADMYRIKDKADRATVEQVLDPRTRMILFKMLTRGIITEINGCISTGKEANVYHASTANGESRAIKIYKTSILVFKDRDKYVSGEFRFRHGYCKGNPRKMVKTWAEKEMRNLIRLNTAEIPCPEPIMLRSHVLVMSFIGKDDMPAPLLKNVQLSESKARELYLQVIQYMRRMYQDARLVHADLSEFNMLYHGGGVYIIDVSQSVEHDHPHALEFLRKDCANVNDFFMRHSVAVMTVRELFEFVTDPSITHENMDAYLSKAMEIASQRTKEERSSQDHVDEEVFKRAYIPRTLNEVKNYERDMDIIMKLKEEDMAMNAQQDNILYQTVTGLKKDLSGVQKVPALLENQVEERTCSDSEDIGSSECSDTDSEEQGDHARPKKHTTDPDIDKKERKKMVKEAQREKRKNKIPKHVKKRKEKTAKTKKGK
Sequence of Sigma non-opioid intracellular receptor 1 (Homo sapiens) (Q99720 whole entry): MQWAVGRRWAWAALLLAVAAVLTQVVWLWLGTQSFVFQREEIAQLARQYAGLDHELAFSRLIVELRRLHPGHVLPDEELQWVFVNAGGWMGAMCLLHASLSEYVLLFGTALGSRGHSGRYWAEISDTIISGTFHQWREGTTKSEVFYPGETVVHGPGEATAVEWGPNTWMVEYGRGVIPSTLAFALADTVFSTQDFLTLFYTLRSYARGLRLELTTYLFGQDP

Structure (SMILES): CC1=C(C#N)C(c2ccc3[nH]nc(C)c3c2)C(C#N)=C(C)N1 [BAY-474]
- inhibition [1]: 6%
- inhibition [2]: 3%
- inhibition [3]: -3%
- inhibition [4]: 10%
- inhibition [5]: -7%
- inhibition [6]: 0%
- inhibition [7]: 12%
- inhibition [8]: -8%
- inhibition [9]: -6%
- inhibition [10]: 2%
- inhibition [11]: 12%
- inhibition [12]: -8%
- inhibition [13]: 18%
- inhibition [14]: -7%
- inhibition [15]: -5%
- inhibition [16]: -5%

Structure (SMILES): CC1=C(C#N)[C@@H](c2ccc3[nH]nc(C)c3c2)C(C#N)=C(c2ccc(Cl)cc2)N1 [BAY-827]
- residual activity [17]: 100%
- residual activity [18]: 100%
- residual activity [19]: 100%
- residual activity [20]: 89.5%
- residual activity [21]: 74.6%
- residual activity [22]: 79.6%
- residual activity [23]: 80.3%
- residual activity [24]: 100%
- residual activity [25]: 69%
- residual activity [26]: 25.2%
- residual activity [27]: 100%
- residual activity [28]: 75.4%
- residual activity [29]: 52.6%
- residual activity [30]: 100%
- residual activity [31]: 100%
- residual activity [32]: 100%
- residual activity [33]: 69.6%
- residual activity [34]: 100%
- residual activity [35]: 100%
- residual activity [36]: 100%
- residual activity [37]: 100%
- residual activity [38]: 100%
- residual activity [39]: 100%
- residual activity [40]: 100%
- residual activity [41]: 96.9%
- residual activity [42]: 100%
- residual activity [43]: 100%
